Reference: the NIST ThermoML archive (doi:10.1016/j.jct.2010.10.018)
± gives the expanded uncertainty stated by the source.

Assay: xn = mol fraction of the nth substance listed
Conditions: 101 kPa, Liquid, Vibrating tube method

CC(C)(C)O [2-methylpropan-2-ol] + O
Conditions	mass density [kg/m3]
298.15 K, x1 = 0.6029	813.22 ± 0.15
298.15 K, x1 = 0.6909	803.57 ± 0.16
298.15 K, x1 = 0.726	800.1 ± 0.16
298.15 K, x1 = 0.7999	794.07 ± 0.16
298.15 K, x1 = 0.8711	788.3 ± 0.17
298.15 K, x1 = 0.9183	785.07 ± 0.17
298.15 K, x1 = 0.9574	782.74 ± 0.17
298.15 K, x1 = 0.9652	782.29 ± 0.17
298.15 K, x1 = 0.9795	781.56 ± 0.17
298.15 K, x1 = 0.9873	781.18 ± 0.17
298.15 K, x1 = 0.9935	780.83 ± 0.17
298.15 K, x1 = 0.9963	780.69 ± 0.17
299.15 K, x1 = 0.9821	780.36 ± 0.17
299.15 K, x1 = 0.9944	779.76 ± 0.17
299.15 K, x1 = 0.996	779.69 ± 0.17
299.15 K, x1 = 1	779.48 ± 0.17
303.15 K, x1 = 0.9821	776.31 ± 0.17
303.15 K, x1 = 0.9944	775.66 ± 0.17
303.15 K, x1 = 0.996	775.58 ± 0.17
303.15 K, x1 = 1	775.39 ± 0.17
308.15 K, x1 = 0.00089	993.36 ± 0.11
308.15 K, x1 = 0.00146	992.96 ± 0.11
308.15 K, x1 = 0.00269	992.08 ± 0.11
308.15 K, x1 = 0.00403	991.15 ± 0.11
308.15 K, x1 = 0.00513	990.39 ± 0.11
308.15 K, x1 = 0.00761	988.7 ± 0.11
308.15 K, x1 = 0.01405	984.86 ± 0.11
308.15 K, x1 = 0.0248	978.65 ± 0.11
308.15 K, x1 = 0.03494	973.48 ± 0.11
308.15 K, x1 = 0.04241	969.43 ± 0.11
308.15 K, x1 = 0.05218	963.7 ± 0.12
308.15 K, x1 = 0.05887	959.67 ± 0.12
308.15 K, x1 = 0.06973	953.09 ± 0.12
308.15 K, x1 = 0.1125	928.56 ± 0.12
308.15 K, x1 = 0.1566	906.33 ± 0.13
308.15 K, x1 = 0.208	886.22 ± 0.13
308.15 K, x1 = 0.2408	874.67 ± 0.14
308.15 K, x1 = 0.3023	856.97 ± 0.14
308.15 K, x1 = 0.3451	846.68 ± 0.14
308.15 K, x1 = 0.4045	834.17 ± 0.15
308.15 K, x1 = 0.4225	830.99 ± 0.15
308.15 K, x1 = 0.4653	823.8 ± 0.15
308.15 K, x1 = 0.5344	812.83 ± 0.15
308.15 K, x1 = 0.6029	803.86 ± 0.16
308.15 K, x1 = 0.6909	794.03 ± 0.16
308.15 K, x1 = 0.726	790.54 ± 0.16
308.15 K, x1 = 0.7999	784.37 ± 0.17
308.15 K, x1 = 0.8711	778.45 ± 0.17
308.15 K, x1 = 0.9183	775.09 ± 0.17
308.15 K, x1 = 0.9574	772.63 ± 0.17
308.15 K, x1 = 0.9652	772.13 ± 0.17
308.15 K, x1 = 0.9795	771.34 ± 0.17
308.15 K, x1 = 0.9821	771.14 ± 0.17
308.15 K, x1 = 0.9944	770.47 ± 0.17
308.15 K, x1 = 0.996	770.38 ± 0.17
308.15 K, x1 = 1	770.14 ± 0.17
313.15 K, x1 = 0.9821	765.88 ± 0.18
313.15 K, x1 = 0.9944	765.18 ± 0.18
313.15 K, x1 = 0.996	765.09 ± 0.18
313.15 K, x1 = 1	764.84 ± 0.18
318.15 K, x1 = 0.9821	760.53 ± 0.18
318.15 K, x1 = 0.9944	759.8 ± 0.2
318.15 K, x1 = 0.996	759.71 ± 0.18
318.15 K, x1 = 1	759.46 ± 0.18
323.15 K, x1 = 0.00089	987.36 ± 0.11
323.15 K, x1 = 0.00146	986.95 ± 0.11
323.15 K, x1 = 0.00269	986.1 ± 0.11
323.15 K, x1 = 0.00403	985.16 ± 0.11
323.15 K, x1 = 0.00513	984.39 ± 0.11
323.15 K, x1 = 0.00761	982.75 ± 0.11
323.15 K, x1 = 0.01405	978.38 ± 0.11
323.15 K, x1 = 0.0248	971.52 ± 0.11
323.15 K, x1 = 0.03494	965.43 ± 0.12
323.15 K, x1 = 0.04241	960.77 ± 0.12
323.15 K, x1 = 0.05218	954.06 ± 0.12
323.15 K, x1 = 0.05887	949.57 ± 0.12
323.15 K, x1 = 0.06973	942.66 ± 0.12
323.15 K, x1 = 0.1125	916.92 ± 0.13
323.15 K, x1 = 0.1566	893.97 ± 0.13
323.15 K, x1 = 0.208	873.34 ± 0.14
323.15 K, x1 = 0.2408	861.46 ± 0.14
323.15 K, x1 = 0.3023	843.45 ± 0.14
323.15 K, x1 = 0.3451	832.95 ± 0.15
323.15 K, x1 = 0.4045	820.18 ± 0.15
323.15 K, x1 = 0.4225	816.91 ± 0.15
323.15 K, x1 = 0.4653	809.6 ± 0.15
